Where a name gives a salt, the structure may show the parent alone. Read-outs that look alike come from different tables or passages of the source. Where a SMILES comes first, the peptide text is derived from it. The star is where a group is joined. Cbz = O=C(OCc1ccccc1)*
How the values were obtained:
HaCaT = test: Cell viability after 48-hr treatment (Table 1); format: cell-based; details: read-out: IC50, HaCaT
Description: (§1) Cells seeded at the concentration of 1,000 cells/well for HeLa, 5,000 cells/well for ES2 and HCT116 and 10,000-20,000 cells/well for other cell lines in 100 μL medium in 96-well plate were treated with RA series compounds at specified concentrations. […]

HT3 = test: Cell viability after 48-hr treatment (Table 1); format: cell-based; details: read-out: IC50, HT3
Description: as §1

SiHa = test: Cell viability after 48-hr treatment (Table 1); format: cell-based; details: read-out: IC50, SiHa
Description: as §1

FaDu = test: Cell viability after 48-hr treatment (Table 1); format: cell-based; details: read-out: IC50, FaDu
Description: as §1, with “Cell viability was assayed using CellTiter 960 AQueous One Solution Reagent (Promega, Madison, Wis.). Cells” for “Cells”

SKOV3 = test: Cell viability after 48-hr treatment (Table 1); format: cell-based; details: read-out: IC50, SKOV3
Description: as §1, with “Cell viability was assayed using CellTiter 960 AQueous One Solution Reagent (Promega, Madison, Wis.). Cells” for “Cells”

C33A = test: Cell viability after 48-hr treatment (Table 1); format: cell-based; details: read-out: IC50, C33A
Description: as §1, with “Cell viability was assayed using CellTiter 960 AQueous One Solution Reagent (Promega, Madison, Wis.). Cells” for “Cells”

CasKi = test: Cell viability after 48-hr treatment (Table 1); format: cell-based; details: read-out: IC50, CasKi
Description: (§2) Cell viability was assayed using CellTiter 960 AQueous One Solution Reagent (Promega, Madison, Wis.). Cells seeded at the concentration of 1,000 cells/well for HeLa, 5,000 cells/well for ES2 and HCT116 and 10,000-20,000 cells/well for other cell lines in 100 μL medium in 96-well plate were treated with RA series compounds at specified concentrations. After the indicated periods, cells were incubated according to the manufacturer's protocol with the MTS labeling mixture for 1-2 hr and absorbance at 490 nm measured using a Benchmark Plus microplate spectrophotometer (BIO-RAD).

HOK-16B = test: Cell viability after 48-hr treatment (Table 1); format: cell-based; details: read-out: IC50, HOK-16B
Description: as §2

OVCAR3 = test: Cell viability after 48-hr treatment (Table 1); format: cell-based, human; details: XTT assay
Description: as §1, with “Cell viability was assayed using CellTiter 960 AQueous One Solution Reagent (Promega, Madison, Wis.). Cells” for “Cells”

HeLa = test: Cell viability after 48-hr treatment (Table 1); format: cell-based, human; details: for IC50: read-out: IC50, HeLa; for potency in cell killing and polyubiquitin accumulation / functional assays relative to RA190: HeLa cells, FIGS. 1I, 9I, 10A-10C
Description: as §1, with “Cell viability was assayed using CellTiter 960 AQueous One Solution Reagent (Promega, Madison, Wis.). Cells” for “Cells”

RPN13 = target: T1, RPN13 (Homo sapiens, UniProt Q16186); test: Biotin labeling assay; format: binding; details: cell lysate or purified RP, streptavidin-peroxidase blot
T1 construct: endogenous in cells; host or cells: HeLa, HS578T cell lysate
T1 sequence (Q16186 whole entry): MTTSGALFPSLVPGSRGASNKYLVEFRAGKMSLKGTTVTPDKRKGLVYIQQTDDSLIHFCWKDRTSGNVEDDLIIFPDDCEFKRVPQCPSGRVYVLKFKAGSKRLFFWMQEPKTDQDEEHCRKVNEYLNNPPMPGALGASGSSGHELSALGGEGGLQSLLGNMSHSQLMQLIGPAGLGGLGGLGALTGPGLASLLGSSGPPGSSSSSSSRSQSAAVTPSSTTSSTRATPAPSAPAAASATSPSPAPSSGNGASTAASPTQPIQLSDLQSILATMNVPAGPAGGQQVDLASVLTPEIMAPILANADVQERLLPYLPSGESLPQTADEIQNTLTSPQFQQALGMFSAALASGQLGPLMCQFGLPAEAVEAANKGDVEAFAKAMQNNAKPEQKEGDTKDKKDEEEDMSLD
Description: FIGS. 10 A-10E show a series of graphs and immunoblots showing the effects of several compounds on cell viability and proteasome activity. […] 10B and 10C show immunoblots of the proteasome activity of cell lines treated with the indicated compounds. […] IC50 values were determined in triplicate. In FIG. 10B, HeLa cells were treated for 12 hr and the cell lysate was subjected to immunoblot analysis with anti-Ubiquitin antibody. In FIG. 10C, SiHa cells were treated with the indicated compounds for 12 hr and the lysate subjected to Western blot analysis with anti-Ubiquitin antibody. HeLa cell lysate was treated with RA190B, subjected to SDS-PAGE, and probed with streptavidin-peroxidase following protein transfer to a polyvinylidene difluoride (PVDF) membrane. The streptavidin-peroxidase bound to biotinylated cellular proteins, but a striking new band at 42 kDa appeared in RA190B-treated samples (FIG. 2A). […] IC50 values were determined in triplicate.
To eliminate the possibility that another RP component was required for RA190B interaction, RPN13 or an irrelevant protein (L2) was overexpressed in bacteria. Cell lysate harvested from bacteria either with or without […] induction of ectopic protein expression was labeled with RA190B and probed by blotting with streptavidin-peroxidase. RA190B reacted strongly with a 42 kDa protein only in lysates of bacteria expressing RPN13 (FIG. 2D). […] 800 μL fractions were collected and alternate fractions (1,3,5,7,9,11,13,15,17) were analyzed for the presence of proteasomal proteins (RPN13, RPN2, RPN1 and UCH37) by Western blot analysis.
Human cells (5×10^6 HeLa or 293TT cells) were lysed using MPER (Pierce) lysis buffer (500 μL). RPN13 or HPV L2 transformed bacterial cells (500 μL of culture) were centrifuged to harvest the cells which were re-suspended in 500 μL BPER (Pierce). Cell lysates were centrifuged at 10,000 rpm briefly (2 min) at 4° C. to remove cell debris. Lysate supernatant (200 μL) was pre cleared with streptavidin dyna beads (20 μL) for 1 h at 4° C. to remove non-specific biotin binding and incubated with compounds (indicated concentrations or 20 μM) at 4° C. for 1 hr. An equal amount of each sample (20 μL of lysate) was mixed with an equal volume of Laemmli sample buffer (20 μL) (BioRad) and was boiled for 5 min. […] (24 V). Membrane was blocked with 5% BSA in PBST for 1 hr at room temperature and washed for 20 min (3×PBST). Then the membrane was probed with HRP-streptavidin (1:10,000 in PBST) for 1 hr at room temperature and washed for 30 min (3×PBST) and developed using HyGLO chemiluminescent detection reagent (Denville) for biotin recognition. For the purified enzyme assay, 19S purified proteasome (R&D Systems, Cat. No. E-366) (500 ng) in 19S buffer (20 mM HEPES, 20 mM NaCl, 1 mM DTT, 15% Glycerol) was incubated with compounds (20 μM) for 1 hr at room temperature and mixed with an equal volume of Laemmli sample buffer (20 μL) (BioRad) and was boiled for 5 min. Each sample was loaded onto gel and followed the western blot protocol mentioned above.
Purified 19S proteasome (500 ng) was incubated with corresponding compounds for 30 min and subjected to immunoblot and probed with HRP-conjugated streptavidin. In FIG. 23, the single band at 42 KDa indicates Rpn13 binding to 195. RA183B (20 μM) is used as positive control for Rpn13 binding. Competition experiments were done with RA183 (100 μM) and RA195 (100 μM) along with RA195B (20 μM).

cancer cells = test: Antiproliferative activity against cancer cells (design rationale); format: cell-based
Description: We used Chloro and Nitro functional groups as substituent's on the aromatic ring due to their greater electron withdrawing effect at ortho (or) para (or) meta (or) both positions along with different amino acid linkages on bis-benzylidine piperidone moiety. Amino acids were chosen based in their physical characteristics like very hydrophobic (phenylalanine), strongly basic and hydrophilic (lysine), basic and hydrophilic (histidine) and amphiphilic (glycine). Commercially available Fmoc and Boc protected amino acids were used in the synthesis, and they were evaluated for their antiproliferatory activity against cancer cells.
Next we synthesized another set of compounds by converting free amine functionality to its Acetate (Ac), Acrolyl (Acr) and Benzoyl […] analogs as these units are part of many anticancer drugs because of their smaller size and feasibility to form inter molecular hydrogen bonds with proteins.
In the RA195 molecule two amino functionalities of lysine can provide more flexibility to make better analogs.

Row | Molecule | IC50 (HaCaT; 48-hr treatment, XTT assay) [µM] | IC50 (HT3; 48-hr treatment, XTT assay) [µM] | IC50 (SiHa; 48-hr treatment, XTT assay) [µM] | IC50 (FaDu; 48-hr treatment, XTT assay) [µM] | IC50 (SKOV3; 48-hr treatment, XTT assay) [µM] | IC50 (C33A; 48-hr treatment, XTT assay) [µM] | IC50 (CasKi; 48-hr treatment, XTT assay) [µM] | IC50 (HOK-16B; 48-hr treatment, XTT assay) [µM] | IC50 (OVCAR3) [µM] | IC50 (HeLa; 48-hr treatment, XTT assay) [µM] | potency in cell killing and polyubiquitin accumulation / functional assays relative to RA190 (HeLa) | other results
1 | 3,5-bis(3,4-dichlorobenzylidene)-1-(S-2-amino-3-(4-hydroxy)-phenyl)-piperidin-4-one HCl salt [RA213] | > 2.5 | > 5 | 2.5 | > 5 | > 2.5 | > 5 | 0.6 | 1.5 | > 5 | 0.6 | – | –
2 | CC(C)C[C@@H](C=O)NC(=O)[C@H](CC(C)C)NC(=O)[C@H](CC(C)C)NC(=O)OCc1ccccc1 [MG132, reference compound] (Cbz-Leu-Leu-Leu-aldehyde) | – | – | – | – | – | – | – | – | – | – | – | IC50 (HaCaT; Homo sapiens, HaCaT, 48 h): > 2.5 µM; IC50 (HT3; Homo sapiens, HT-3, 48 h): > 5 µM; IC50 (SiHa; Homo sapiens, SiHa, 48 h): 2 µM; IC50 (FaDu; Homo sapiens, FaDu, 48 h): > 2.5 µM; IC50 (SKOV3; Homo sapiens, SK-OV-3, 48 h): > 2.5 µM; IC50 (C33A; Homo sapiens, C-33-A, 48 h): > 5 µM; IC50 (CasKi; Homo sapiens, Ca-Ski, 48 h): 0.5 µM; IC50 (HOK-16B; 48 h): 0.7 µM; IC50 (HeLa; Homo sapiens, HeLa, 48 h): 0.75 µM
3 | N[C@@H](Cc1ccccc1)C(=O)N1CC(=Cc2ccccc2Cl)C(=O)C(=Cc2ccccc2Cl)C1 [RA166, 3,5-bis(2-chlorobenzylidene)-1-(S-2-amino-3-phenyl)-piperidin-4-one-HCl salt] | > 2.5 | > 5 | 2 | > 5 | > 2.5 | > 5 | 1.5 | > 5 | > 5 | 0.6 | – | –
4 | N[C@@H](Cc1ccccc1)C(=O)N1CC(=Cc2ccccc2)C(=O)C(=Cc2ccccc2)C1 [RA181, 3,5-dibenzylidene-1-(S-2-amino-3-phenyl)-piperidin-4-one-HCl salt] | > 2.5 | > 5 | 2 | > 5 | > 2.5 | > 5 | 2 | > 5 | > 5 | 0.35 | – | –
5 | O=C(CCCC[C@@H]1SCC2NC(=O)NC21)N[C@@H](Cc1ccccc1)C(=O)N1C/C(=C\c2ccc(Cl)c(Cl)c2)C(=O)/C(=C/c2ccc(Cl)c(Cl)c2)C1 (stereo partly shown) [RA190B] | – | – | – | – | – | – | – | – | – | – | did not affect its potency | labeling of / competition for RPN13 (42 kDa band) (RPN13): bound to the 42 kDa protein
6 | Cl.NC(Cc1ccccc1)C(=O)N1C/C(=C\c2ccc(Cl)c(Cl)c2)C(=O)/C(=C/c2ccc(Cl)c(Cl)c2)C1 (stereo not shown) [RA190D] | – | – | – | – | – | – | – | – | – | – | – | antiproliferative potency among analogs (cancer cells): Neither of these compounds was as good as RA190
7 | Cl.N[C@@H](Cc1ccccc1)C(=O)N1CC(C(SCCO)c2ccc(Cl)c(Cl)c2)C(=O)C(C(SCCO)c2ccc(Cl)c(Cl)c2)C1 (stereo partly shown) [RA190ME, 3,5-bis((2-hydroxyethylthio)(3,4-dichlorophenyl)methyl)-1-(S-2-amino-3-phenyl)-piperidin-4-one-HCl salt] | – | – | – | – | – | – | – | – | – | – | significantly reduced its potency | –
8 | N[C@@H](Cc1ccccc1)C(=O)N1C/C(=C\c2ccc(Cl)c(Cl)c2)C(=NO)/C(=C/c2ccc(Cl)c(Cl)c2)C1 [RA190O] | – | – | – | – | – | – | – | – | – | – | dramatically reduced activity | –
9 | O=C1/C(=C/c2ccc(Cl)c(Cl)c2)CN(C(=O)[C@H](Cc2ccccc2)NC(=O)c2ccccn2)C/C1=C\c1ccc(Cl)c(Cl)c1 [RA190P] | – | – | – | – | – | – | – | – | – | – | – | antiproliferative potency among analogs (cancer cells): Neither of these compounds was as good as RA190
10 | N[C@@H](Cc1ccccc1)C(=O)N1CC(Cc2ccc(Cl)c(Cl)c2)C(O)C(Cc2ccc(Cl)c(Cl)c2)C1 (stereo partly shown) [RA190R] | – | – | – | – | – | – | – | – | – | – | dramatically reduced activity | –
11 | O=C(CCCC[C@@H]1SCC2NC(=O)NC21)NCCCC[C@H](NC(=O)OCC1c2ccccc2-c2ccccc21)C(=O)N1C/C(=C\c2ccc(Cl)c(Cl)c2)C(=O)/C(=C/c2ccc(Cl)c(Cl)c2)C1 (stereo partly shown) [RA195B] | – | – | – | – | – | – | – | – | – | – | – | labeling of / competition for RPN13 (42 kDa band) (RPN13): labels HeLa cell lysate at 42 KDa
12 | N[C@@H](Cc1c[nH]cn1)C(=O)N1CC(=Cc2ccc(Cl)c(Cl)c2)C(=O)C(=Cc2ccc(Cl)c(Cl)c2)C1 [RA196, 3,5-bis(3,4-dichlorobenzylidene)-1-(S-1H-imidazol-4-yl) piperidin-4-one di HCl salt] | > 2.5 | > 5 | 2 | > 5 | > 2.5 | > 5 | 1 | 3 | 2.5 | 0.6 | – | –
13 | N[C@@H](Cc1ccccc1)C(=O)N1CC(=Cc2ccccc2F)C(=O)C(=Cc2ccccc2F)C1 [RA201, 3,5-bis(2-fluorobenzylidene)-1-(S-2-amino-3-phenyl)-piperidin-4-one-HCl salt] | > 2.5 | > 5 | 2 | > 5 | > 2.5 | > 5 | 2.5 | 1.5 | > 5 | 0.35 | – | –
